Source: patent publication US9365598B2, “Phosphine derivatives of fluorescent compounds” (Pierce Biotechnology, Inc., priority 2011, dated 2016)

Columns and labels:
[1] = system: A549 cell lysate; assay: A549 cell lysate labeling with azido-sugars, SDS-PAGE; format: cell-based, human
Procedure: The inventive and commercial compounds were examined in A549 cell lysate labeling experiments using azido-sugars. Cell extracts were prepared from A549 incubated with azido-sugar N-azidoacetylgalactosamine […], N-azidoacetylglucosamine (GlcNAz) or N-azidoacetylmannosamine […]. The cell extracts were incubated with either 550 Compound 1-phosphine, 650 Compound 1-phosphine, CLICK-iT® Alexa555-Alkyne, or CLICK-iT® Alexa Fluor 647 DIBO Alkyne and analyzed by SDS-PAGE. The resulting lysates were separated by electrophoresis. 10 μg protein was loaded onto a PAGE gel (4-12% Bis-Tris gel).
The resulting lysates were separated by electrophoresis. […]
FIGS. 63-64 graphically represent band intensity of FIGS. 61-62. […] Relative fluorescence intensity for the gel image of FIG. 61 comparing Alexa555 (copper) and 550 Compound 1-phosphine (FIG. 63) and for the gel image of FIG. 62 comparing Alexa647 (copper-less) and 650 Compound 1-phosphine (FIG. 64).

[2] = system: mouse IgG immunoglobulin; assay: Functional plate assay of compound-PEG4-GAM conjugates (RFU); format: binding; settings: conjugates at 4 μg/ml on mouse IgG coated plates; FIGS. 13-14
Procedure: Performance of compound-GAM conjugates and compound-GAR conjugates was evaluated in a functional assay. Wells of a 96 white opaque plate were coated with target proteins mouse IgG immunoglobulin or rabbit IgG immunoglobulin. One hundred μl mouse or rabbit IgG at a concentration of 10 μg/ml was applied to the corresponding wells in columns 1 and 2. The target proteins were serially diluted 1:1 from the wells in columns 2 to 11 using 100 μl PBS. One hundred μl of samples from the wells in column 11 were discarded. One hundred μl PBS was added to the wells in column 12. The plates were incubated overnight at 4° C. and then blocked 2×200 μl with Thermo Scientific SuperBlock® Blocking Buffer. […] The plates were washed with 2×200 μl with PBS-Tween and 1×200 μl with PBS and filled with PBS buffer (100 μl/well) prior to scanning on Tecan Safire using 562 nmexcitation/576 nmemission to detect fluorescence intensity and DyLight 649 and DyLight 650 plated were measured using 654 nmexcitation/673 nmemission.
As shown in FIGS. 13-14, the fluorescence intensity, also termed the RFU, was compared for compound-PEG4-GAM conjugates where the compound was DyLight 549-phosphine (blue; FIG. 13), 550 Compound 1-phosphine (red; FIG. 13), DyLight 649-phosphine (red; FIG. 14) and 650 Compound 1-phosphine (blue; FIG. 14) at various concentrations. […]

[3] = Thermal stress stability of the compounds, purity by HPLC before and after storage; format: physicochemical; settings: unit size 1 mg; for Purity Before thermal stress: packed under argon, HPLC before storage; for Purity After thermal stress: under argon, stored at 50° C. for 14 days, HPLC
Procedure: The inventive compounds were evaluated for stability compared to commercial dyes. All compounds were packed under argon as 1 mg portions in plastic vials. The vials were sealed under argon with a drying pad in an aluminium coated pouch, and then stored at 50° C. for 14 days. The results of the stability study for selected compounds are shown below where the determination of purity was by HPLC before and after storage.

[4] = system: HK2 cells; assay: Azido-sugar cell labeling, HK2 cells; format: cell-based; settings: 100 μM dye-phosphine
Source text: (§1) The inventive and commercial compounds were examined in cell labeling experiments using azido-sugars and adenocarcinomic human alveolar basal epithelial (A549) cells, human osteosarcoma (U2OS) cells, and immortalized proximal tubule epithelial (HK2) cells. As is known in the art, introduction of labeled sugar moieties results in incorporation of the labeled sugar moieties in various cellular molecules and locations.
(§2) Metabolically incorporated azido-labeled sugars, N-azidoacetyl galactosamine, N-azidoacetyl glucosamine, and N-azidoacetyl mannosamine was detected in vivo. Cells were incubated with 40 μM azido-sugar in cell culture media for 72 hours and the live cells were incubated with 100 μM of dye-labeled phosphine. The cells were then washed, fixed with 4% paraformaldehyde and counterstained with Hoechst 33342 which labels nuclei. For fixed cells, the cells were incubated with the azido-sugar, fixed with 4% paraformaldehyde, permeabilized with 0.1% Triton X-100, and incubated with 100 μM of dye-labeled phosphine. In live cell labeling using the phosphine labeling reaction used 100 μM of the dye-labeled phosphine for three hours at 37° C., and the CLICK-iT® labeling reaction, using DIBO-Alexa dye, used 30 μM of the DIBO Alexa dye for one hour at room temperature (RT). In fixed cell labeling, the phosphine labeling reaction used 100 μM of the dye-labeled phosphine for three hours at 37° C., and the CLICK-IT® labeling reaction, using DIBO-Alexa dye, used 50 μM of the DIBO Alexa dye for one hour at RT in the presence of 5 μM copper for one hour at RT in the absence of copper.
HK2 cells, either live (column A) or fixed (column B), were labeled with N-azidoacetyl galactosamine followed by labeling with 550 Compound 1-phosphine (row 1), 650 Compound 1-phosphine (row 2), or Copperless CLICK-iT® using DIBO-Alexa647 (row 3), as shown in FIG. 52. A graphical representation of the spot average intensity for the images of FIG. 52 is shown for labeling live (FIG. 53) and fixed (FIG. 54) cells. […]

[5] = system: U2OS cells; assay: Azido-sugar cell labeling, U2OS cells; format: cell-based, human; settings: 100 μM dye-phosphine
Source text: as §1
as §2, with “In fixed cell labeling, the phosphine labeling reaction used 100 μM of the dye-labeled phosphine for three hours at 37° C., and the CLICK-IT® labeling reaction, using DIBO-Alexa dye, used 50 μM of the DIBO Alexa dye for one hour at RT in the presence of 5 μM copper for one hour at RT in the absence of copper.” left out

[6] = system: secretory vesicles in HK2, A549, and U2OS cells; assay: Secretory vesicle labeling with Az-ManNAc; format: cell-based; settings: N-azidoacetyl mannosamine; co-localized with PGP9.5
Source text: The inventive and commercial compounds were used to label secretory vesicles in various cell types using azido-sugars. […] Co-localization of Man-650 Compound 1-phosphine, and this labeling was co-localized with PGP9.5, a secreted protein, as shown in FIGS. 65B and 66B (red arrows).

[7] = system: A549 cells; assay: Azido-sugar cell labeling, A549 cells; format: cell-based, human; settings: N-azidoacetyl galactosamine, 100 μM dye-phosphine 3 h 37° C.
Source text: as §1
Metabolically incorporated azido-labeled sugars, N-azidoacetyl galactosamine, N-azidoacetyl glucosamine, and N-azidoacetyl mannosamine was detected in vivo. Cells were incubated with 40 μM azido-sugar in cell culture media for 72 hours and the live cells were incubated with 100 μM of dye-labeled phosphine. The cells were then washed, fixed with 4% paraformaldehyde and counterstained with Hoechst 33342 which labels nuclei. For fixed cells, the cells were incubated with the azido-sugar, fixed with 4% paraformaldehyde, permeabilized with 0.1% Triton X-100, and incubated with 100 μM of dye-labeled phosphine. […]
Fluorescence intensity was measured in each spot identified using a specific Bio-Application with the ArrayScanVTI image analysis software. […]

Substance | band intensity of labeled lysate versus CLICK-iT Alexa 555-alkyne ([1]; A549 lysates, three azido-sugars, 10 μg protein per lane, FIG. 63) | fluorescence intensity (RFU) of compound-PEG4-GAM conjugates compared with DyLight 549 / DyLight 649 conjugate [2] | Purity Before thermal stress [3] | Purity After thermal stress [3] | live cell labeling (spot average intensity) versus Alexa647-DIBO CLICK-iT ([4]; N-azidoacetyl galactosamine) | live cell labeling (spot average intensity) versus Alexa647-DIBO CLICK-iT ([4]; N-azidoacetyl glucosamine) | live cell labeling (spot average intensity) versus Alexa647-DIBO CLICK-iT ([4]; N-azidoacetyl mannosamine) | labeling pattern of lysate on gel ([1]; A549 lysates with Az-GalNAc, Az-GlcNAc or Az-ManNAc, FIG. 62) | live cell labeling (spot average intensity) versus Alexa647-DIBO CLICK-iT ([5]; N-azidoacetyl glucosamine) | live cell labeling (spot average intensity) versus Alexa647-DIBO CLICK-iT ([5]; N-azidoacetyl mannosamine) | secretory vesicle labeling [6] | live cell labeling (spot average intensity) versus Alexa647-DIBO CLICK-iT [7]
2-((1E,3E)-3-(1-(6-(2-(3-(diphenylphosphino)-4-(methoxycarbonyl)benzamido)ethylamino)-6-oxohexyl)-3-methyl-5-sulfonato-3-(3-sulfonatopropyl)indolin-2-ylidene)prop-1-enyl)-1-(2-methoxyethyl)-3-methyl-3-(3-sulfonatopropyl)-3H-indolium-5-sulfonate [550 Compound 1-phosphine] | better than CLICK-iT® Alexa 555-alkyne | similar | 96% | 96% |  |  |  |  |  |  |  | 
2-((1E,3E,5E)-5-(1-(6-(2-(3-(diphenylphosphino)-4-(methoxycarbonyl)benzamido)ethylamino)-6-oxohexyl)-3-methyl-5-sulfonato-3-(3-sulfonatopropyl)indolin-2-ylidene)penta-1,3-dienyl)-1-(2-methoxyethyl)-3-methyl-3-(3-sulfonatopropyl)-3H-indolium-5-sulfonate [650 Compound 1-phosphine] |  | similar | 97% | 96% | better than Alexa647-DIBO CLICK-iT® labeling | better than Alexa647-DI BO CLICK-iT® labeling | better than Alexa647-DIBO CLICK-iT® labeling | different labeling pattern for each of the three incorporated azido-sugars | better than Alexa647-DIBO CLICK-iT® labeling | better than Alexa647-DIBO CLICK-iT® labeling | resulted in labeling of secretory vesicles | better than Alexa647-DIBO CLICK-iT® labeling
